Results as given in PMC12249905, “Substituted Triazole-3,5-Diamine Compounds as Novel Human Topoisomerase III Beta Inhibitors” (International Journal of Molecular Sciences, 2025).
pIC50: −log10 of the molar value.

Assays:
[1] = Cell viability of human dermal fibroblasts (CellTiter-Blue); assay type: cell-based; conditions: primary human dermal fibroblasts (HdFa), 100 µM (highest concentration), 24 h exposure, relative to untreated control
Description: Human dermal fibroblasts (HdFa; PCS-210-012™, ATCC, Manassas, VA, USA) were cultured in Dulbecco’s Modified Eagle Medium (DMEM; supplemented with GlutaMAX™ and sodium pyruvate; Gibco, Waltham, MA, USA), containing 10% fetal bovine serum (FBS; Gibco) and 1% penicillin-streptomycin (10,000 U/mL; Gibco). Cells were maintained in T75 tissue culture flasks (Thermo Scientific Nunc™, Roskilde, Denmark) under standard incubation conditions (37 °C, 5% CO2, humidified atmosphere). Upon reaching confluency, cells were harvested and seeded into black-walled, clear-bottom, 96-well plates at a density of 5000 cells/well in 100 µL of complete growth medium. Following overnight incubation, the cells reached approximately 80–90% confluence. […]
After 24 h of compound exposure, 20 µL of CellTiter-Blue® reagent (Promega, WI, USA) was added to each well. Plates were incubated for an additional 2 h at 37 °C, after which the fluorescence of the metabolized resorufin product was measured using a Synergy Multi-Mode Plate Reader (BioTek Instruments, Winooski, VT, USA) at an excitation wavelength of 560 nm and an emission wavelength of 590 nm. Cellular viability in response to the test compounds was expressed as a percentage relative to the untreated control group.(1) Cell viability (%)=Fluorescenceintensityoftreatedcells/Fluorescenceintensityofcontrolcells×[…]

[2] = molecular target: T1, human TOP3B (Homo sapiens, UniProt O95985); assay: Assay of inhibition of human TOP3B relaxation activity (chloroquine gel electrophoresis, TDRD3 present); assay type: biochemical; conditions: for pIC50: DNA relaxation, 18 nM TOP3B and TDRD3, supercoiled pBAD/Thio plasmid, 37 °C 1 h; for Inhibition of the DNA relaxation activity of human TOP3B: tested at up to 200 µM
T1 construct: GST (N); 6xHis (C); purchased Genscript (custom production); host or cells: sf9 insect cells (TOP3B); E. coli Rosetta(DE3) (TDRD3, made in house)
T1 sequence (O95985 1-862): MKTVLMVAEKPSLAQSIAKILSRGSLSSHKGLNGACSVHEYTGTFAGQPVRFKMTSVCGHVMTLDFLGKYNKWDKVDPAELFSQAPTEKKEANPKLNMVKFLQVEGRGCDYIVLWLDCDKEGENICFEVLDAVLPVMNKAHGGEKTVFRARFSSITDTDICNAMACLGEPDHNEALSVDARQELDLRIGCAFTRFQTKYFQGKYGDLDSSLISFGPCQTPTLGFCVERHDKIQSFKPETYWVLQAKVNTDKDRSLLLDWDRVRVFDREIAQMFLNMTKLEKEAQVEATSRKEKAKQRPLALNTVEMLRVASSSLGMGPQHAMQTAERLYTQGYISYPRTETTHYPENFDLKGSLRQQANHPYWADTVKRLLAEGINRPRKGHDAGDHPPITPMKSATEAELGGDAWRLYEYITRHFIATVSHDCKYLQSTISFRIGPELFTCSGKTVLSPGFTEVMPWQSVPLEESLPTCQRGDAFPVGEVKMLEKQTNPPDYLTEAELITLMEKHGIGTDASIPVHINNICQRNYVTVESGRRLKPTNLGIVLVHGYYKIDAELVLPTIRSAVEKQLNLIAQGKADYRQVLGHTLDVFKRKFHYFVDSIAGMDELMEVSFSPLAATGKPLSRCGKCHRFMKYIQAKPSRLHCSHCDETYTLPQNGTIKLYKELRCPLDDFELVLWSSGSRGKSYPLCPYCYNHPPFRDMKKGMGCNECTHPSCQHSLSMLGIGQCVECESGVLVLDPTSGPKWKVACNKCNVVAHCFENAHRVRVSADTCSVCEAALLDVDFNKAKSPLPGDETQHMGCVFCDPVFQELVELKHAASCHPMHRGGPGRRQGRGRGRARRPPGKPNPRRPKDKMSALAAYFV
From the text: Human TOP3B protein was obtained through custom production by Genscript. The coding sequence of human TOP3B was custom synthesized by Genscript and cloned into vector pFastBacGST to generate the recombinant baculovirus expressing human TOP3B protein with the N-terminal GST tag and C-terminal 6xHis tag. Following expression in sf9 insect cells, the recombinant TOP3B protein was purified to >95% homogeneity by Genscript using GST column and superdex 200 16/600G chromatography. A buffer containing 20 mM of Tris-HCl (pH 7.5), 750 mM of KCl, 10% glycerol, 1 mM of EDTA, 0.05% NP-40, and 1mM of DTT was used for storage and dilution.
The presence of the TDRD3 protein enhances the relaxation activity of human TOP3B through the direct binding of the proposed TOP3B hinge region for gate opening and closing. The human TDRD3 coding sequence was amplified by PCR from the TDRD3 clone in pEGFP-C1 [45] using a forward primer of 5′-[…]-3′ and a reverse primer of 5′-[…]-3′. The amplified TDRD3 gene was joined with the backbone of the DHFR-His plasmid (from New England BioLab) using the NEB HiFi assembly kit with the forward primer 5′-[…]-3′ and the reverse primer 5′-[…]-3′ so that the TDRD3 gene replaced the DHFR gene. The his-tagged TDRD3 protein was expressed from the T7 promoter in E. coli Rosetta(DE3) cells and purified using the HisPur Ni-NTA spin column from Thermo Fisher according to the manufacturer’s protocol.
Inhibition of the relaxation activity of human TOP3B was carried out in a reaction buffer containing 20 mM of HEPES-KOH, with a pH of 7.5, 1 mM of DTT, 0.1 mg/mL of BSA, and 5 mM of MgCl2. TOP3B and TDRD3 were added at 18 nM to each reaction mix followed by 0.5 μL of DMSO or indicated concentrations of compounds, and lastly by the addition of 500 ng of supercoiled pBAD/Thio plasmid DNA (purified by CsCl gradient centrifugation) for a final reaction volume of 20 μL. After mixing by gentle vortex, the reaction mixtures were spun down and incubated at 37 °C for 1 h. The relaxation reactions were terminated by the addition of 1 μL of 10% SDS and 2 μL of 800 units/mL of proteinase K (New England Biolabs) and incubated at 45 °C for 30 min. Following the addition of 5 μL of stop solution (50 mM of EDTA, 50% glycerol, and 0.5% v/v bromophenol blue), the reaction products were analyzed in a 1% agarose gel with TAE (40 mM of Tris-acetate, pH 8.0, 2 mM of EDTA) buffer containing 5 μg/mL of chloroquine at 25 V (1 V/cm) for 18 h. Gels were washed with TAE buffer for 1 h and 50 mM of NaCl for 1 h to remove the chloroquine, and finally with deionized water for 30 min. Gels were stained for 2 h with 1 μg/mL of SYBR Gold solution (Thermo Fischer Scientific, Waltham, MA, USA). Gels were destained with deionized water for 15 min and photographed over UV light with the AlphaImager system. The amount of the relaxed DNA produced by TOP3B in each reaction was quantified using the AlphaImager software version 1.5.0 to calculate the percentage of inhibition versus the DMSO control.

[3] = molecular target: T2, human TOP1 (Homo sapiens, UniProt P11387); assay: Assay of inhibition of human TOP1 relaxation activity (gel electrophoresis); assay type: biochemical; conditions: DNA relaxation, 1 unit enzyme, supercoiled pBAD/Thio plasmid, 37 °C 30 min
T2 construct: made in house; host or cells: Saccharomyces cerevisiae strain EKY3
T2 sequence (P11387 1-765): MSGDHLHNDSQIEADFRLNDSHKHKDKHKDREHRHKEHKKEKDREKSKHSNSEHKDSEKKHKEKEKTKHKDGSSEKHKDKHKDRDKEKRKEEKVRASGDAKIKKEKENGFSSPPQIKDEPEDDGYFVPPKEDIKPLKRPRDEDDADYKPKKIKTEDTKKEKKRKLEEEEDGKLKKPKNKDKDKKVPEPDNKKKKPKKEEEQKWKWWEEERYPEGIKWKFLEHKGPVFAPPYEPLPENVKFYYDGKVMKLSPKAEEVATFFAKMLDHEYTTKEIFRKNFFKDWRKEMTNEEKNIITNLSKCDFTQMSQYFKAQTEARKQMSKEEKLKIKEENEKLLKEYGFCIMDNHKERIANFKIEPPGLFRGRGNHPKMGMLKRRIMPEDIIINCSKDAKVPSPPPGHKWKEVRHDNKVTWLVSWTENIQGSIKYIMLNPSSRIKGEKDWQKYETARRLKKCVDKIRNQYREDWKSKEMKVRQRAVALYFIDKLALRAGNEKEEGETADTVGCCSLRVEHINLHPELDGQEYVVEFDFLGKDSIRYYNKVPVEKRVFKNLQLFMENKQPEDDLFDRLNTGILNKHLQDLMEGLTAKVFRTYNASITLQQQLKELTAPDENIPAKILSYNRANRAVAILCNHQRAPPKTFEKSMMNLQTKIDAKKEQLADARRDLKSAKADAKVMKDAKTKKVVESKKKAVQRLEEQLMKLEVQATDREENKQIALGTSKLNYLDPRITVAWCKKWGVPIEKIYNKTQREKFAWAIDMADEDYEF
Description: Recombinant human TOP1 was expressed from clone pYES2-TOP1 transformed into Saccharomyces cerevisiae strain EKY3 [46]. Inhibition of TOP1 relaxation activity was assayed as described in a 20 µL reaction containing 200 ng of supercoiled pBAD/Thio plasmid DNA and 1 unit of enzyme in 10 mM of Tris-HCl, with a pH of 8.0, 1 mM of EDTA, 150 mM of NaCl, 0.1 mM of spermidine, 0.1 mg/mL of BSA, and 5% glycerol. The reactions were incubated at 37 °C for 30 min before the addition of 4 µL of stop solution (6% SDS, 0.6% (wv/v)) bromophenol blue and 40% glycerol. Gel electrophoresis for the separation of the supercoiled DNA substrate from the relaxed DNA was conducted in 1% agarose gel with TAE buffer for 20 h at 25 V. The DNA was stained with ethidium bromide for an hour and then soaked in water for 5 min. Gels were photographed over UV light with the AlphaImager system. The amount of the supercoiled DNA substrate remaining in each reaction was quantified using the AlphaImager software to calculate the percentage of inhibition versus the DMSO control.

**Q.** Which viability at 24 h, 100 µM [1] does the source give for CC(C)[C@H](N)C(=O)n1nc(Nc2ccccc2/C=C/C(N)=O)nc1N [2710-33-343] here?
**A.** ~60%

**Q.** With CC(C)C[C@H](N)C(=O)n1nc(Nc2ccccc2/C=C/C(N)=O)nc1N [2710-34-357] as the compound, how does the pIC50 [2] read?
**A.** 4.46

**Q.** And the pIC50 [3]?
**A.** 4.50

**Q.** With Nc1nc(Nc2ccc3c(c2)CC[C@@H](N2CCCC2)CC3)nn1-c1cc2c(nn1)-c1ccccc1CCC2 [Bemcentinib] as the compound, how does the pIC50 [2] read?
**A.** 4.46

**Q.** What about the “Selectivity for inhibition of TOP3B versus TOP1” value ([2]; comparison of IC50 values TOP3B vs TOP1) of the same compound?
**A.** inhibits TOP3B with greater potency than TOP1

**Q.** And the “Inhibition of the DNA relaxation activity of human TOP3B” value (“Inhibition … of human TOP3B” below) [2]?
**A.** Inhibition was observed only for bemcentinib

**Q.** And the pIC50 [3]?
**A.** 4.12

**Q.** Which “Inhibition … of human TOP3B” value [2] does the source give for CN1CCN(C2CCN(C(=O)Nc3cc(Oc4ccc(NC(=O)C5(C(=O)Nc6ccc(F)cc6)CC5)c(F)c4)ccn3)CC2)CC1 [Golvatinib] here?
**A.** Inhibition was observed only for bemcentinib

**Q.** Which “Inhibition … of human TOP3B” value [2] does the source give for Cc1cn(-c2cc(NC(=O)c3ccc(C)c(Nc4nccc(-c5cccnc5)n4)c3)cc(C(F)(F)F)c2)cn1 [Nilotinib] here?
**A.** Inhibition was observed only for bemcentinib

**Q.** With Cc1cn(-c2cc(NC(=O)c3ccc(C)c(Nc4nccc(-c5cnccn5)n4)c3)cc(C(F)(F)F)c2)cn1 [Radotinib] as the compound, how does the “Inhibition … of human TOP3B” value [2] read?
**A.** Inhibition was observed only for bemcentinib

**Q.** With CNC(=O)c1cc(Oc2ccc(NC(=O)Nc3cc(C(C)(C)C)nn3-c3ccc4ncccc4c3)c(F)c2)ccn1 [Rebastinib] as the compound, how does the “Inhibition … of human TOP3B” value [2] read?
**A.** Inhibition was observed only for bemcentinib

**Q.** With Cc1cc(Nc2ncnc3ccc(NC4=NC(C)(C)CO4)cc23)ccc1Oc1ccn2ncnc2c1 [Tucatinib] as the compound, how does the “Inhibition … of human TOP3B” value [2] read?
**A.** Inhibition was observed only for bemcentinib
